Laboratory results from a compilation of properties of binary mixtures (doi:10.1007/s10953-014-0257-1).

Test: xn = mol fraction of the nth substance listed
Settings: 101 kPa

c1ccc2sccc2c1 + CCCC[N+]1(C)CCCC1.N#C[C-](C#N)C#N
x1 = 1
Settings | viscosity [mPa·s]
308.15 K | 2.94
318.15 K | 2.06
328.15 K | 1.74
338.15 K | 1.49
348.15 K | 1.29
358.15 K | 1.14

CCCC[N+]1(C)CCCC1.N#C[C-](C#N)C#N + c1ccc2sccc2c1
viscosity [mPa·s]
Settings | x2 = 0 | x2 = 0.1112 | x2 = 0.2212 | x2 = 0.3565 | x2 = 0.5267 | x2 = 0.6111 | x2 = 0.6767
308.15 K | – | 18.8 | 17 | 14.78 | – | 10.45 | 9.23
318.15 K | 15.44 | 14.1 | 12.77 | 11.13 | 9.01 | 7.87 | 6.89
328.15 K | 12 | 10.97 | 9.95 | 8.69 | – | 6.19 | 5.41
338.15 K | 9.59 | 8.77 | 7.96 | – | 5.68 | 4.98 | 4.36
348.15 K | 7.81 | 7.16 | 6.49 | 5.67 | 4.65 | 4.1 | 3.59
358.15 K | 6.47 | 5.93 | 5.38 | 4.74 | 3.88 | 3.44 | 3.03
